{"source": "ChEMBL document CHEMBL1129391", "about": "“Potent and selective thrombin inhibitors incorporating the constrained arginine mimic l-3-piperidyl(N-guanidino)alanine at P1” (J Med Chem, 1996)", "data": [{"biological_target": "T1, Trypsin II (Bos taurus, UniProt Q29463)", "T1 sequence (Q29463 whole entry)": "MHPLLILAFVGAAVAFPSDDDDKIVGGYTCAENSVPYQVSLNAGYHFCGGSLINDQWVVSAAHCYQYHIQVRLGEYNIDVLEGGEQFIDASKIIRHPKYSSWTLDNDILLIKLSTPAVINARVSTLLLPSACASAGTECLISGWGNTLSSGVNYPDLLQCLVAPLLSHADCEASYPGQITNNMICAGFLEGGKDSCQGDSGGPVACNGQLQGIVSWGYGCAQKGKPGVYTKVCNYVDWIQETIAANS", "test": "Compound was evaluated for inhibition of amidolytic activity for chromogenic substrate trypsin", "units": {"IC50": "nM"}, "values": [{"molecule": "N=C(N)NCCC[C@@H](C=O)NC(=O)CN1CCC[C@H](NS(=O)(=O)Cc2ccccc2)C1=O", "IC50": 1550}, {"molecule": "[H]/N=C(\\N)N1CCC[C@@H](C[C@@H](C=O)NC(=O)CN2CCC[C@H](NS(=O)(=O)Cc3ccccc3)C2=O)C1", "IC50": 68400}, {"molecule": "CCCC(CCC)C(=O)N[C@@H](CC(=O)OC)C(=O)N1CCC[C@H]1C(=O)N[C@H](C=O)CCCNC(=N)N", "IC50": 1.2}, {"molecule": "N=C(N)N1CCC[C@H](C[C@@H](C=O)NC(=O)CN2CCC[C@H](NS(=O)(=O)Cc3ccccc3)C2=O)C1", "IC50": 60700}, {"molecule": "N=C(N)NCCC[C@@H](C=O)NC(=O)CN1CCCC[C@H](NS(=O)(=O)Cc2ccccc2)C1=O", "IC50": 329}, {"molecule": "CCCC(CCC)C(=O)N[C@@H](CC(=O)OC)C(=O)N1CCC[C@H]1C(=O)N[C@H](C=O)CC1CCCN(C(=N)N)C1", "note": "(stereo in doubt; 4a)", "IC50": 113}, {"molecule": "CCCC(CCC)C(=O)N[C@@H](CC(=O)OC)C(=O)N1CCC[C@H]1C(=O)N[C@H](C=O)CC1CCCN(C(=N)N)C1", "note": "(stereo in doubt; 4b)", "IC50": 69.7}, {"molecule": "N=C(N)N1CCCC(C[C@@H](C=O)NC(=O)CN2CCCC[C@H](NS(=O)(=O)Cc3ccccc3)C2=O)C1", "note": "(stereo in doubt; 6a)", "IC50": 15100}, {"molecule": "N=C(N)N1CCCC(C[C@@H](C=O)NC(=O)CN2CCCC[C@H](NS(=O)(=O)Cc3ccccc3)C2=O)C1", "note": "(stereo in doubt; 6b)", "IC50": 45800}]}, {"biological_target": "Coagulation factor X (Homo sapiens, UniProt P00742)", "sequence (P00742 41-179 limits assumed)": "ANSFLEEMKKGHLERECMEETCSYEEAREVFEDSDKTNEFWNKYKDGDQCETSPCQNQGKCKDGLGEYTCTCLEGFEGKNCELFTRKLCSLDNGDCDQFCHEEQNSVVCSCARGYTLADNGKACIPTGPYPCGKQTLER", "sequence (P00742 235-488 limits assumed)": "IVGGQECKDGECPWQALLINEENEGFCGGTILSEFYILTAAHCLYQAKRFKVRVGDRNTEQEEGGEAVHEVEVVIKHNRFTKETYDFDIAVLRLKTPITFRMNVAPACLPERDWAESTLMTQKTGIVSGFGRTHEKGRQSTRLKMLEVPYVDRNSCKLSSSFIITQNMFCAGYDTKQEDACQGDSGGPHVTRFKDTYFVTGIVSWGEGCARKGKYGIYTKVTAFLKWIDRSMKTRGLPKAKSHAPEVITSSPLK", "test": "Compound was evaluated for inhibition of amidolytic activity for chromogenic substrate Coagulation factor X", "units": {"IC50": "nM"}, "values": [{"molecule": "N=C(N)NCCC[C@@H](C=O)NC(=O)CN1CCC[C@H](NS(=O)(=O)Cc2ccccc2)C1=O", "IC50": "> 2500"}, {"molecule": "[H]/N=C(\\N)N1CCC[C@@H](C[C@@H](C=O)NC(=O)CN2CCC[C@H](NS(=O)(=O)Cc3ccccc3)C2=O)C1", "IC50": "> 25000"}, {"molecule": "CCCC(CCC)C(=O)N[C@@H](CC(=O)OC)C(=O)N1CCC[C@H]1C(=O)N[C@H](C=O)CCCNC(=N)N", "IC50": 301}, {"molecule": "N=C(N)N1CCC[C@H](C[C@@H](C=O)NC(=O)CN2CCC[C@H](NS(=O)(=O)Cc3ccccc3)C2=O)C1", "IC50": "> 25000"}, {"molecule": "N=C(N)NCCC[C@@H](C=O)NC(=O)CN1CCCC[C@H](NS(=O)(=O)Cc2ccccc2)C1=O", "IC50": 20.6}, {"molecule": "CCCC(CCC)C(=O)N[C@@H](CC(=O)OC)C(=O)N1CCC[C@H]1C(=O)N[C@H](C=O)CC1CCCN(C(=N)N)C1", "note": "(stereo in doubt; 4a)", "IC50": "> 2500"}, {"molecule": "CCCC(CCC)C(=O)N[C@@H](CC(=O)OC)C(=O)N1CCC[C@H]1C(=O)N[C@H](C=O)CC1CCCN(C(=N)N)C1", "note": "(stereo in doubt; 4b)", "IC50": "> 2500"}, {"molecule": "N=C(N)N1CCCC(C[C@@H](C=O)NC(=O)CN2CCCC[C@H](NS(=O)(=O)Cc3ccccc3)C2=O)C1", "note": "(stereo in doubt; 6a)", "IC50": "> 2500"}, {"molecule": "N=C(N)N1CCCC(C[C@@H](C=O)NC(=O)CN2CCCC[C@H](NS(=O)(=O)Cc3ccccc3)C2=O)C1", "note": "(stereo in doubt; 6b)", "IC50": "> 25000"}]}, {"biological_target": "Prothrombin (Homo sapiens, UniProt P00734)", "test": "Compound was evaluated for inhibition of amidolytic activity for chromogenic substrate thrombin […].", "units": {"IC50": "nM"}, "values": [{"molecule": "N=C(N)NCCC[C@@H](C=O)NC(=O)CN1CCC[C@H](NS(=O)(=O)Cc2ccccc2)C1=O", "IC50": 12.4}, {"molecule": "[H]/N=C(\\N)N1CCC[C@@H](C[C@@H](C=O)NC(=O)CN2CCC[C@H](NS(=O)(=O)Cc3ccccc3)C2=O)C1", "IC50": 0.67}, {"molecule": "N=C(N)N1CCC[C@H](C[C@@H](C=O)NC(=O)CN2CCC[C@H](NS(=O)(=O)Cc3ccccc3)C2=O)C1", "IC50": 28.8}, {"molecule": "N=C(N)NCCC[C@@H](C=O)NC(=O)CN1CCCC[C@H](NS(=O)(=O)Cc2ccccc2)C1=O", "IC50": 0.71}]}]}
